Assays:
[1] = target: NAMPT (Homo sapiens, UniProt P43490); test: Time-Resolved Fluorescence Resonance Energy Transfer (TR-FRET) Binding Assay of NAMPT; conditions: 6.8 nM NAMPT, 200 nM probe, equilibrated 3 hours, no substrates
Procedure: Determination of the utility of compounds having Formula (I) as binders to and inhibitors of NAMPT was performed using Time-Resolved Fluorescence Resonance Energy Transfer (TR-FRET) binding assays.
Time-Resolved Fluorescence Resonance Energy Transfer (TR-FRET) Binding Assay of NAMPT
Six L were transferred to 384-well low-volume plates ([…] #3673). To this, 12 L of a 1.5× solution containing enzyme, probe and antibody were added. […] Reactions were equilibrated at room temperature for 3 hours prior to reading on an Envision multi-label plate reader (Perkin Elmer; Ex=337 nm, Em=520 and 495 nm). Time-resolved FRET ratios (Em520/Em495) were normalized to controls, plotted as a function of compound concentration and fit with the four-parameter logistic equation to determine IC50s.

[2] = test system: PC3 cells; test: NAMPT Cell Proliferation Assay (Cell Titer Glo); assay type: cell-based; conditions: Homo sapiens, PC-3, 120 h, incubated 5 days, cell viability
Procedure: NAMPT Cell Proliferation Assay
PC3 cells were seeded in 96-well black plates (Corning #3904) at 500 cells/well in 90 µl of RPMI media containing 10% heat-inactivated FBS and incubated overnight at 37° C. and 5% CO2 to allow cells to attach to wells. The following day, test compounds were serially diluted in neat DMSO to 1000× final concentrations prior to dilution with RPMI media to 10× and 1% DMSO. Ten L of the 10× compounds were then transferred to wells containing cells to produce a dose response of 10-fold dilutions from […]. Cells were incubated for 5 days at 37° C. and 5% CO2, then cell viability was measured using Cell Titer Glo reagent (Promega #G7571). Percent inhibition values were calculated and fitted to a sigmoidal dose response curves using Assay Explorer software to determine IC50s.

Sequence of NAMPT (P43490 whole entry): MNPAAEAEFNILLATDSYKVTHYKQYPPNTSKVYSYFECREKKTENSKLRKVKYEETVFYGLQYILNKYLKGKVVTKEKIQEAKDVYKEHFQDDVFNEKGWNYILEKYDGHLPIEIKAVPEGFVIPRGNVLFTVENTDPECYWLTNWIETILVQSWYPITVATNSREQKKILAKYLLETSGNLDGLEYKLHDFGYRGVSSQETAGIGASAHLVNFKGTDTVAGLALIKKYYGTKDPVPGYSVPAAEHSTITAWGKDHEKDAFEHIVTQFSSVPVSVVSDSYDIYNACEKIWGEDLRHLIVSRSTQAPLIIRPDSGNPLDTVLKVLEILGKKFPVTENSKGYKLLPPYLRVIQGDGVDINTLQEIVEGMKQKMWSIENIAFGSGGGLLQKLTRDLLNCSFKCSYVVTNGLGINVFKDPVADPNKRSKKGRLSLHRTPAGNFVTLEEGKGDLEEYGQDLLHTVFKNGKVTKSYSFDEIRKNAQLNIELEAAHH

Compound	IC50 [1]	IC50 [2]
CC(C)(C)OC(=O)N1CC[C@@H](Oc2ccc(NC(=O)N3CC(c4cccnc4)C3)cc2)C1 [Example 60, tert-butyl (3R)-3-[4-({[3-(pyridin-3-yl)azetidin-1-yl]carbonyl}amino)phenoxy]pyrrolidine-1-carboxylate]	55.4 nM	74.9 nM
CC(C)C(=O)N1CCC(c2ccc(NC(=O)N3CC(c4cccnc4)C3)cc2)C1 (stereo not shown) [Example 65, N-{4-[1-(2-methylpropanoyl)pyrrolidin-3-yl]phenyl}-3-(pyridin-3-yl)azetidine-1-carboxamide]	56.6 nM	62.2 nM
O=C(Nc1ccc(C2CCN(C(=O)[C@@H]3CCCO3)C2)cc1)N1CC(c2cccnc2)C1 (stereo partly drawn) [Example 66, 3-(pyridin-3-yl)-N-(4-{1-[(2S)-tetrahydrofuran-2-ylcarbonyl]pyrrolidin-3-yl}phenyl)azetidine-1-carboxamide]	86 nM	82.2 nM
O=C(Nc1ccc(C2CCN(C(=O)C3CCOC3)C2)cc1)N1CC(c2cccnc2)C1 (stereo not shown) [Example 68, 3-(pyridin-3-yl)-N-{4-[1-(tetrahydrofuran-3-ylcarbonyl)pyrrolidin-3-yl]phenyl}azetidine-1-carboxamide]	86.2 nM	59.1 nM
O=C(CC1CCOCC1)N1CC[C@@H](Oc2ccc(NC(=O)N3CC(c4cccnc4)C3)cc2)C1 [Example 76, 3-(pyridin-3-yl)-N-(4-{[(3R)-1-(tetrahydro-2H-pyran-4-ylacetyl)pyrrolidin-3-yl]oxy}phenyl)azetidine-1-carboxamide]	83.6 nM	22.4 nM
CC(C)C(=O)N1CC[C@@H](Oc2ccc(NC(=O)N3CC(c4cccnc4)C3)cc2)C1 [Example 77, N-(4-{[(3R)-1-(2-methylpropanoyl)pyrrolidin-3-yl]oxy}phenyl)-3-(pyridin-3-yl)azetidine-1-carboxamide]	61.9 nM	17.3 nM
O=C(Nc1ccc(O[C@@H]2CCN(C(=O)[C@H]3CCCO3)C2)cc1)N1CC(c2cccnc2)C1 [Example 79, 3-(pyridin-3-yl)-N-[4-({(3R)-1-[(2R)-tetrahydrofuran-2-ylcarbonyl]pyrrolidin-3-yl}oxy)phenyl]azetidine-1-carboxamide]	92.9 nM	41.4 nM
O=C(Nc1ccc(O[C@@H]2CCN(C(=O)C3CCOC3)C2)cc1)N1CC(c2cccnc2)C1 (stereo partly drawn) [Example 80, 3-(pyridin-3-yl)-N-(4-{[(3R)-1-(tetrahydrofuran-3-ylcarbonyl)pyrrolidin-3-yl]oxy}phenyl)azetidine-1-carboxamide]	122 nM	63.2 nM
O=C(CC(F)(F)F)N1CC[C@@H](Oc2ccc(NC(=O)N3CC(c4cccnc4)C3)cc2)C1 [Example 84, 3-(pyridin-3-yl)-N-(4-{[(3R)-1-(3,3,3-trifluoropropanoyl)pyrrolidin-3-yl]oxy}phenyl)azetidine-1-carboxamide]	59.4 nM	22 nM
CC(C)C(=O)N1CC[C@H](Oc2ccc(NC(=O)N3CC(c4cccnc4)C3)cc2)C1 [Example 89, N-(4-{[(3S)-1-(2-methylpropanoyl)pyrrolidin-3-yl]oxy}phenyl)-3-(pyridin-3-yl)azetidine-1-carboxamide]	227 nM	180 nM
O=C(Nc1ccc(O[C@H]2CCN(C(=O)[C@H]3CCCO3)C2)cc1)N1CC(c2cccnc2)C1 [Example 91, 3-(pyridin-3-yl)-N-[4-({(3S)-1-[(2R)-tetrahydrofuran-2-ylcarbonyl]pyrrolidin-3-yl}oxy)phenyl]azetidine-1-carboxamide]	320 nM	111 nM
O=C(Nc1ccc(O[C@H]2CCN(C(=O)C3CCOC3)C2)cc1)N1CC(c2cccnc2)C1 (stereo partly drawn) [Example 92, 3-(pyridin-3-yl)-N-(4-{[(3S)-1-(tetrahydrofuran-3-ylcarbonyl)pyrrolidin-3-yl]oxy}phenyl)azetidine-1-carboxamide]	387 nM	608 nM
O=C(CC1CC1)N1CC[C@H](Oc2ccc(NC(=O)N3CC(c4cccnc4)C3)cc2)C1 [Example 93, N-(4-{[(3S)-1-(cyclopropylacetyl)pyrrolidin-3-yl]oxy}phenyl)-3-(pyridin-3-yl)azetidine-1-carboxamide]	138 nM	87.6 nM
O=C(Nc1ccc(O[C@H]2CCN(C(=O)c3ccccc3)C2)cc1)N1CC(c2cccnc2)C1 [Example 95, N-(4-{[(3S)-1-benzoylpyrrolidin-3-yl]oxy}phenyl)-3-(pyridin-3-yl)azetidine-1-carboxamide]	79.1 nM	66.2 nM
O=C(CC(F)(F)F)N1CC[C@H](Oc2ccc(NC(=O)N3CC(c4cccnc4)C3)cc2)C1 [Example 96, 3-(pyridin-3-yl)-N-(4-{[(3S)-1-(3,3,3-trifluoropropanoyl)pyrrolidin-3-yl]oxy}phenyl)azetidine-1-carboxamide]	265 nM	171 nM
O=C(Nc1ccc(O[C@H]2CCN(C(=O)C3CC3)C2)cc1)N1CC(c2cccnc2)C1 [Example 97, N-(4-{[(3S)-1-(cyclopropylcarbonyl)pyrrolidin-3-yl]oxy}phenyl)-3-(pyridin-3-yl)azetidine-1-carboxamide]	168 nM	76.7 nM

Now those with a lower IC50 [1], led by results:

IC50 [1]	IC50 [2]	Compound
44.8 nM	61.3 nM	O=C(CC1CC1)N1CCC(c2ccc(NC(=O)N3CC(c4cccnc4)C3)cc2)C1 (stereo not shown) [Example 69, N-{4-[1-(cyclopropylacetyl)pyrrolidin-3-yl]phenyl}-3-(pyridin-3-yl)azetidine-1-carboxamide]
30.9 nM	17.8 nM	O=C(CC1CC1)N1CC[C@@H](Oc2ccc(NC(=O)N3CC(c4cccnc4)C3)cc2)C1 [Example 81, N-(4-{[(3R)-1-(cyclopropylacetyl)pyrrolidin-3-yl]oxy}phenyl)-3-(pyridin-3-yl)azetidine-1-carboxamide]
27.4 nM	8.83 nM	CC(C)C(=O)N1CCC(c2ccc(NC(=O)N3CC(c4cccnc4)C3)cc2)CC1 [Example 56, N-{4-[1-(2-methylpropanoyl)piperidin-4-yl]phenyl}-3-(pyridin-3-yl)azetidine-1-carboxamide]
24 nM	7.89 nM	O=C(Nc1ccc(OC2CN(C(=O)c3nccs3)C2)cc1)N1CC(c2cccnc2)C1 [Example 154, 3-(pyridin-3-yl)-N-(4-{[1-(1,3-thiazol-2-ylcarbonyl)azetidin-3-yl]oxy}phenyl)azetidine-1-carboxamide]
22.6 nM	37.8 nM	CC(C)Cn1cc(-c2ccc(NC(=O)N3CC(c4cccnc4)C3)cc2)cn1 [Example 157, N-{4-[1-(2-methylpropyl)-1H-pyrazol-4-yl]phenyl}-3-(pyridin-3-yl)azetidine-1-carboxamide]
20.8 nM	15.4 nM	O=C(Nc1ccc(OC2CN(C(=O)c3ccoc3)C2)cc1)N1CC(c2cccnc2)C1 [Example 151, N-(4-{[1-(furan-3-ylcarbonyl)azetidin-3-yl]oxy}phenyl)-3-(pyridin-3-yl)azetidine-1-carboxamide]
19.8 nM	6.04 nM	CCCC(=O)N1CC[C@@H](Oc2ccc(NC(=O)N3CC(c4cccnc4)C3)cc2)C1 [Example 87, N-(4-{[(3R)-1-butanoylpyrrolidin-3-yl]oxy}phenyl)-3-(pyridin-3-yl)azetidine-1-carboxamide]
17.4 nM	7.86 nM	O=C(CC(F)(F)F)N1CCC(c2ccc(NC(=O)N3CC(c4cccnc4)C3)cc2)CC1 [Example 58, 3-(pyridin-3-yl)-N-{4-[1-(3,3,3-trifluoropropanoyl)piperidin-4-yl]phenyl}azetidine-1-carboxamide]
16.7 nM	5.13 nM	O=C(Nc1ccc(OC2CN(C(=O)c3cscn3)C2)cc1)N1CC(c2cccnc2)C1 [Example 147, 3-(pyridin-3-yl)-N-(4-{[1-(1,3-thiazol-4-ylcarbonyl)azetidin-3-yl]oxy}phenyl)azetidine-1-carboxamide]
14.7 nM	8.81 nM	CC(C)C(C)C(=O)N1CC(Oc2ccc(NC(=O)N3CC(c4cccnc4)C3)cc2)C1 (stereo not shown) [Example 123, N-(4-{[1-(2,3-dimethylbutanoyl)azetidin-3-yl]oxy}phenyl)-3-(pyridin-3-yl)azetidine-1-carboxamide]
9.73 nM	7.24 nM	CC(C)(O)C(=O)N1CC[C@@H](Oc2ccc(NC(=O)N3CC(c4cccnc4)C3)cc2)C1 [Example 82, N-(4-{[(3R)-1-(2-hydroxy-2-methylpropanoyl)pyrrolidin-3-yl]oxy}phenyl)-3-(pyridin-3-yl)azetidine-1-carboxamide]
9.22 nM	6.11 nM	O=C(Nc1ccc(OC2CN(C(=O)c3ccco3)C2)cc1)N1CC(c2cccnc2)C1 [Example 115, N-(4-{[1-(furan-2-ylcarbonyl)azetidin-3-yl]oxy}phenyl)-3-(pyridin-3-yl)azetidine-1-carboxamide]
7.22 nM	6.85 nM	O=C(Nc1ccc(O[C@@H]2CCN(C(=O)c3ccccc3)C2)cc1)N1CC(c2cccnc2)C1 [Example 83, N-(4-{[(3R)-1-benzoylpyrrolidin-3-yl]oxy}phenyl)-3-(pyridin-3-yl)azetidine-1-carboxamide]

Source: patent US9296723B2, “NAMPT inhibitors” (AbbVie Inc., priority 2012, dated 2016)
